In patent publication US8361765B2, “Enzymic method for the enantioselective reduction of keto compounds” (IEP GmbH, priority 2001, dated 2013):

Tests used:
[1] = test system: L. minor alcohol dehydrogenase; experiment: Enzyme stability in organic solvents; type: biochemical, Lactobacillus minor; conditions: for Enzyme activity relative to starting value, t = 2 h / Enzyme activity relative to starting value, t = 8 h / Enzyme activity relative to starting value, t = 24 h / Enzyme activity relative to starting value, t = 48 h: room temperature; for action of the solvent on the alcohol dehydrogenase (in words): Table 7
Description: The stability of the enzyme when contacted with organic solvents was studied by diluting L. minor alcohol dehydrogenase 1:100 in the solvent mixtures listed, followed by incubation at room temperature (for organic solvents not miscible with water, the dilution refers to the aqueous phase). Continuous mixing of both phases was ensured (shaker, 200 rpm). 10 μl of the enzyme solution were then used in the standard assay mixture. Here too, the starting value was set to 100% after dilution in the buffer (triethanolamine buffer 100 mM, pH=7.0, 1 mM MgCl2), with all other values being related to this value.

[2] = octanol/water; cited from earlier work
[3] = test system: alcohol dehydrogenase from Lactobacillus minor; experiment: Spectrum of substrates; type: biochemical; conditions: 10 mM keto compound as substrate, 0.19 mM NADPH, pH 7.0; activity with ethyl 4-chloro-3-oxo-butanoate set to 100%
Description: Furthermore, substrates other than ethyl 4-chloro-3-oxo-butanoate were also used in the enzymic assay mixture. For this purpose, the following assay mixture was used: • 970 μl of triethanolamine buffer (100 mM, pH=7.0, 1 mM MgCl2 containing 10 mM keto compound) • 20 μl of NADPH (0.19 mM in assay mixture) • 10 μl of enzyme (1:100)
The activity determined with ethyl 4-chloro-3-oxo-butanoate was set to 100% and the enzyme activities of the other substrates were related to this value.

[4] = 20% solvent not miscible with water, two phases shaken 200 rpm
[5] = 10% water-miscible solvent in buffer
[6] = 20% water-miscible solvent in buffer

| SMILES | Enzyme activity relative to starting value, t = 2 h [1, 4] [%] | Enzyme activity relative to starting value, t = 8 h [1, 4] [%] | Enzyme activity relative to starting value, t = 24 h [1, 4] [%] | Enzyme activity relative to starting value, t = 48 h [1, 4] [%] | action of the solvent on the alcohol dehydrogenase (in words) [1] | logP [2] | other results |
| --- | --- | --- | --- | --- | --- | --- | --- |
| CCCCC [pentane] | 74 | 55 | 7 | 6 | do not exhibit this stabilizing action | 3 |  |
| CCOC(=O)CC(=O)CCl [Ethyl 4-chloro-3-oxo-butanoate] |  |  |  |  |  |  | Activity in % (n = 2) [3]: 100% |
| CCCCCC [hexane] | 80 | 39 | 2 | 5 | do not exhibit this stabilizing action |  |  |
| COC(=O)CC(C)=O [Methyl acetoacetate] |  |  |  |  |  |  | Activity in % (n = 2) [3]: 120 ± 7.7% |
| CCOCC [diethyl ether] | 53 | 42 | 37 | 23 |  | 0.85 |  |
| CC(C)O [isopropanol] |  |  |  |  | inactivating action |  |  |
| CCCCCCCC [octane] | 87 | 47 | 2 | 1 | do not exhibit this stabilizing action |  |  |
| CCOC(=O)C(=O)CCc1ccccc1 [Ethyl 2-oxo-4-phenylbutyrate] |  |  |  |  |  |  | Activity in % (n = 2) [3]: 62.7 ± 4.8% |
| CCOC(C)=O [ethyl acetate] | 87 | 50 | 10 | 8 |  |  |  |
| CCCCCCC(C)=O [2-Octanone] |  |  |  |  |  |  | Activity in % (n = 2) [3]: 90.8 ± 1.2% |
| COC(C)(C)C [tert-butyl methyl ether] | 67 | 51 | 38 | 24 |  | 1.21 |  |
| CCOC(=O)C(C)=O [Ethyl pyruvate] |  |  |  |  |  |  | Activity in % (n = 2) [3]: 192.3 ± 11.5% |
| C[S+](C)[O-] [DMSO, dimethyl sulfoxide] |  |  |  |  | activating and, respectively, stabilizing action |  | Enzyme activity relative to starting value, t = 2 h [1, 5]: 73%; Enzyme activity relative to starting value, t = 8 h [1, 5]: 54%; Enzyme activity relative to starting value, t = 24 h [1, 5]: 60%; Enzyme activity relative to starting value, t = 48 h [1, 5]: 40%; Enzyme activity relative to starting value, t = 2 h [1, 6]: 73%; Enzyme activity relative to starting value, t = 8 h [1, 6]: 54%; Enzyme activity relative to starting value, t = 24 h [1, 6]: 57%; Enzyme activity relative to starting value, t = 48 h [1, 6]: 40% |
| CC(C)OC(C)C [diisopropyl ether] | 100 | 57 | 41 | 29 |  | 1.55 |  |
| CCCCCCC [heptane] | 51 | 49 | 7 | 6 | do not exhibit this stabilizing action | 4 |  |
| OCC(O)CO [glycerol] |  |  |  |  | activating and, respectively, stabilizing action | −3 | Enzyme activity relative to starting value, t = 2 h [1, 5]: 120%; Enzyme activity relative to starting value, t = 8 h [1, 5]: 64%; Enzyme activity relative to starting value, t = 24 h [1, 5]: 62%; Enzyme activity relative to starting value, t = 48 h [1, 5]: 28%; Enzyme activity relative to starting value, t = 2 h [1, 6]: 120%; Enzyme activity relative to starting value, t = 8 h [1, 6]: 100%; Enzyme activity relative to starting value, t = 24 h [1, 6]: 100%; Enzyme activity relative to starting value, t = 48 h [1, 6]: 104% |
| OC[C@@H](O)[C@@H](O)[C@H](O)[C@@H](O)CO [sorbitol] |  |  |  |  | activating and, respectively, stabilizing action |  | Enzyme activity relative to starting value, t = 2 h ([1]; 1M in buffer): 93%; Enzyme activity relative to starting value, t = 8 h ([1]; 1M in buffer): 74%; Enzyme activity relative to starting value, t = 24 h ([1]; 1M in buffer): 60%; Enzyme activity relative to starting value, t = 48 h ([1]; 1M in buffer): 6% |
